Reference: PubChem BioAssay (NCI)
Several values for one entry are separate records, joined by “and”; a condition that tells them apart may be missing. Identical values can stand only once.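 Grown in 96-well plates, cells were treated for 48 hours with each compound at five concentrations. Insufficient inhibition: endpoint recorded as highest concentration tested. GI50 = concentration required for 50% inhibition of growth. Definition used: TGI = concentration required for complete inhibition of growth.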

Legend:
Assay in all cases: DTP human tumour cell line panel, 48 h
[1] = test system: 786-0 renal
[2] = test system: A498 renal
[3] = test system: A549 NSCLC
[4] = test system: ACHN renal
[5] = test system: BT-549 breast
[6] = test system: CAKI-1 renal
[7] = test system: CCRF-CEM leukemia
[8] = test system: COLO 205 colon
[9] = test system: DU-145 prostate
[10] = test system: EKVX NSCLC
[11] = test system: HCC-2998 colon
[12] = test system: HCT-116 colon
[13] = test system: HCT-15 colon
[14] = test system: HL-60(TB) leukemia
[15] = test system: HOP-62 NSCLC
[16] = test system: HOP-92 NSCLC
[17] = test system: HS 578T breast
[18] = test system: HT29 colon
[19] = test system: IGROV1 ovarian
[20] = test system: K-562 leukemia
[21] = test system: KM12 colon
[22] = test system: LOX IMVI melanoma
[23] = test system: M14 melanoma
[24] = test system: MALME-3M melanoma
[25] = test system: MCF7 breast
[26] = test system: MDA-MB-231 breast
[27] = test system: MDA-MB-435
[28] = test system: MOLT-4 leukemia
[29] = test system: NCI-H226 lung
[30] = test system: NCI-H23 lung
[31] = test system: NCI-H460 lung
[32] = test system: NCI-H522 lung
[33] = test system: NCI/ADR-RES ovarian
[34] = test system: OVCAR-3 ovarian
[35] = test system: OVCAR-4 ovarian
[36] = test system: OVCAR-5 ovarian
[37] = test system: OVCAR-8 ovarian
[38] = test system: PC-3 prostate
[39] = test system: RPMI-8226 leukemia
[40] = test system: RXF 393 renal
[41] = test system: SF-268 CNS
[42] = test system: SF-295 CNS
[43] = test system: SF-539 CNS
[44] = test system: SK-MEL-2 melanoma
[45] = test system: SK-MEL-28 melanoma
[46] = test system: SK-MEL-5 melanoma
[47] = test system: SK-OV-3 ovarian
[48] = test system: SN12C renal
[49] = test system: SNB-19 CNS
[50] = test system: SNB-75 CNS
[51] = test system: SR leukemia
[52] = test system: SW-620 colon
[53] = test system: T-47D breast
[54] = test system: TK-10 renal
[55] = test system: U251 CNS
[56] = test system: UACC-257 melanoma
[57] = test system: UACC-62 melanoma
[58] = test system: UO-31 renal

For `O=C(/C=C/c1cccc(S(=O)(=O)Nc2ccccc2)c1)NO`, which GI50 [1] is on record?
The GI50 was 2170 nM and 934 nM.

And the TGI [1]?
The TGI was 12600 nM and 11200 nM.

What about the GI50 [2] of the same compound?
The GI50 was 273 nM and 305 nM.

And the TGI [2]?
The TGI was 1340 nM and 1120 nM.

What about the GI50 [3] of the same compound?
Its GI50 is 459 nM and 80.5 nM.

What about the TGI [3] of the same compound?
Its TGI is 17800 nM and 44400 nM.

And the GI50 [4]?
Its GI50 is 429 nM and 422 nM.

What about the TGI [4] of the same compound?
Its TGI is 3220 nM and 8440 nM.

And the GI50 [5]?
Its GI50 is 3530 nM and 2160 nM.

And the TGI [5]?
The TGI was 44500 nM and 71900 nM.

And the GI50 [6]?
Its GI50 is 401 nM and 462 nM.

And the TGI [6]?
The TGI was 2480 nM and 1860 nM.

What about the TGI [7] of the same compound?
Its TGI is 58200 nM and > 100000 nM.

And the GI50 [8]?
The GI50 was 353 nM and 118 nM.

And the GI50 [9]?
Its GI50 is 444 nM and 111 nM.

And the TGI [9]?
The TGI was 17800 nM.

And the GI50 [10]?
The GI50 was 1130 nM and 409 nM.

What about the TGI [10] of the same compound?
The TGI was greater than 100000 nM.

What about the GI50 [11] of the same compound?
The GI50 was 519 nM and 258 nM.

What about the TGI [11] of the same compound?
The TGI was 2480 nM and 1910 nM.

What about the GI50 [12] of the same compound?
Its GI50 is 206 nM and 39.1 nM.

And the TGI [12]?
Its TGI is 1180 nM.

What about the GI50 [13] of the same compound?
The GI50 was 1080 nM and 1290 nM.

What about the TGI [13] of the same compound?
The TGI was > 48900 nM and 68500 nM.

And the TGI [14]?
The TGI was 29800 nM.

What about the GI50 [15] of the same compound?
Its GI50 is 529 nM and 325 nM.

And the TGI [15]?
The TGI was 13100 nM and 5340 nM.

What about the GI50 [16] of the same compound?
The GI50 was 270 nM and 74 nM.

And the TGI [16]?
The TGI was 2190 nM and 1210 nM.

And the GI50 [17]?
The GI50 was 1280 nM and 520 nM.

And the TGI [17]?
Its TGI is > 81800 nM and 34900 nM.

What about the GI50 [18] of the same compound?
Its GI50 is 250 nM and 1150 nM.

And the TGI [18]?
The TGI was 15900 nM and > 15800 nM.

What about the GI50 [19] of the same compound?
The GI50 was 623 nM and 116 nM.

And the TGI [19]?
The TGI was 4430 nM and > 26600 nM.

And the GI50 [20]?
Its GI50 is 325 nM and 59.3 nM.

What about the TGI [20] of the same compound?
Its TGI is greater than 100000 nM.

What about the GI50 [21] of the same compound?
The GI50 was 426 nM and 71.4 nM.

What about the TGI [21] of the same compound?
The TGI was 9140 nM and 10700 nM.

And the GI50 [22]?
The GI50 was 259 nM and 293 nM.

What about the TGI [22] of the same compound?
Its TGI is 1620 nM and 10200 nM.

What about the GI50 [23] of the same compound?
The GI50 was 451 nM and 441 nM.

What about the TGI [23] of the same compound?
Its TGI is 12900 nM and 12500 nM.

And the GI50 [24]?
The GI50 was 251 nM and 44.7 nM.

And the TGI [24]?
The TGI was 13800 nM and 3120 nM.

And the GI50 [25]?
Its GI50 is 384 nM and 157 nM.

And the TGI [25]?
The TGI was > 100000 nM and 10400 nM.

What about the GI50 [26] of the same compound?
The GI50 was 577 nM and 216 nM.

What about the TGI [26] of the same compound?
The TGI was 19900 nM and 5630 nM.

And the GI50 [27]?
Its GI50 is 290 nM and 194 nM.

And the TGI [27]?
The TGI was 3480 nM and 2070 nM.

What about the TGI [28] of the same compound?
The TGI was greater than 29900 nM.

What about the GI50 [29] of the same compound?
Its GI50 is 2340 nM and 694 nM.

And the TGI [29]?
The TGI was 11500 nM and 5110 nM.

What about the GI50 [30] of the same compound?
Its GI50 is 707 nM and 112 nM.

What about the TGI [30] of the same compound?
Its TGI is 7470 nM and 2690 nM.

What about the GI50 [31] of the same compound?
The GI50 was 376 nM and 116 nM.

What about the TGI [31] of the same compound?
The TGI was 34000 nM and 5420 nM.

And the GI50 [32]?
The GI50 was 191 nM and 60.3 nM.

What about the TGI [32] of the same compound?
Its TGI is 1980 nM and 17200 nM.

And the TGI [33]?
The TGI was 6510 nM.

And the GI50 [34]?
Its GI50 is 565 nM and 512 nM.

What about the TGI [34] of the same compound?
Its TGI is 4160 nM and 3760 nM.

And the GI50 [35]?
The GI50 was 1980 nM and 1080 nM.

What about the TGI [35] of the same compound?
Its TGI is greater than 100000 nM.

And the GI50 [36]?
The GI50 was 428 nM and 146 nM.

And the TGI [36]?
The TGI was 13200 nM and > 16900 nM.

And the GI50 [37]?
The GI50 was 309 nM and 34.1 nM.

And the TGI [37]?
The TGI was 16900 nM and 17000 nM.

What about the GI50 [38] of the same compound?
Its GI50 is 557 nM and 151 nM.

And the TGI [38]?
Its TGI is 51200 nM and 21800 nM.

What about the GI50 [39] of the same compound?
Its GI50 is 248 nM.

And the GI50 [40]?
The GI50 was 342 nM and 101 nM.

And the TGI [40]?
Its TGI is 1790 nM and 1880 nM.

What about the GI50 [41] of the same compound?
Its GI50 is 1220 nM and 324 nM.

And the TGI [41]?
The TGI was 15600 nM and 8910 nM.

And the GI50 [42]?
Its GI50 is 579 nM and 603 nM.

What about the TGI [42] of the same compound?
The TGI was 3120 nM and 3970 nM.

What about the GI50 [43] of the same compound?
Its GI50 is 696 nM and 130 nM.

What about the TGI [43] of the same compound?
The TGI was 20900 nM and 23900 nM.

What about the GI50 [44] of the same compound?
Its GI50 is 2340 nM and 5730 nM.

And the TGI [44]?
Its TGI is 15600 nM and > 71200 nM.

And the GI50 [45]?
Its GI50 is 1000 nM and 1550 nM.

And the TGI [45]?
Its TGI is 10300 nM and 51800 nM.

What about the TGI [46] of the same compound?
Its TGI is 1030 nM and 192 nM.

What about the GI50 [47] of the same compound?
The GI50 was 457 nM and 486 nM.

What about the TGI [47] of the same compound?
Its TGI is 6640 nM and > 29400 nM.

What about the GI50 [48] of the same compound?
The GI50 was 1680 nM and 244 nM.

And the GI50 [49]?
Its GI50 is 841 nM and 835 nM.

And the TGI [49]?
The TGI was 19500 nM and 41500 nM.

What about the TGI [50] of the same compound?
Its TGI is 58100 nM and > 54000 nM.

And the TGI [51]?
Its TGI is 22800 nM.

And the GI50 [52]?
Its GI50 is 227 nM and 30.8 nM.

And the TGI [52]?
Its TGI is 9270 nM and > 47100 nM.

And the GI50 [53]?
Its GI50 is 227 nM and 144 nM.

What about the GI50 [54] of the same compound?
Its GI50 is 215 nM and 24 nM.

What about the TGI [54] of the same compound?
The TGI was 3190 nM and 1730 nM.

What about the GI50 [55] of the same compound?
The GI50 was 597 nM and 496 nM.

And the TGI [55]?
The TGI was 4380 nM and 10700 nM.

What about the GI50 [56] of the same compound?
The GI50 was 553 nM and 250 nM.

What about the TGI [56] of the same compound?
Its TGI is 10800 nM and > 100000 nM.

What about the TGI [57] of the same compound?
Its TGI is 1530 nM and 196 nM.

And the GI50 [58]?
Its GI50 is 448 nM and 134 nM.

What about the TGI [58] of the same compound?
Its TGI is 5910 nM and 29500 nM.
